Test results as given in patent publication US8629084B2, “Iodine-phenyl-substituted cyclic cetoenols” (Bayer CropScience AG, priority 2004, dated 2014).
Values belong to the compound of their own block, whether it stands above or below them.

Experiments:
[1] = logP determination by HPLC on reversed-phase column (C18), EEC Directive 79/831 Annex V.A8; assay type: physicochemical; details: for log P: value in preparation example text
Experimental: • The logP values given in the Tables and Preparation Examples above are determined in accordance with EEC Directive 79/831 Annex V.A8 by HPLC (High Performance Liquid Chromatography) on a reversed-phase column (C18). Temperature: 43° C.
The determination is carried out in the acidic range at pH 2.3 using the mobile phases 0.1% aqueous phosphoric acid and acetonitrile; linear gradient from 10% acetonitrile to 95% acetonitrile. […]
Calibration is carried out using unbranched alkan-2-ones (having 3 to 16 carbon atoms) with known logP values (determination of the logP values by the retention times using linear interpolation between two successive alkanones).

cereal = experiment: Herbicidal post-emergence action with use of safeners (Example G): container trials with cereal in a greenhouse, mefenpyr 1 day prior to herbicide application; assay type: in vivo; details: without safener
Experimental: Herbicidal Post-Emergence Action
Seeds of monocotyledonous and dicotyledonous weed and crop plants are placed into sandy loam in wood fiber pots or in plastic pots, covered with soil and cultivated in a greenhouse, during the vegetation period also outdoors outside of the greenhouse, under good growth conditions. Two to three weeks after sowing, the test plants are treated at the one- to three-leaf stage. The test compounds, formulated as wettable powders (WP) or liquid (EC), are, in various dosages at a water application rate of 300 l/ha (converted), with wetting agent (0.2 to 0.3%) added, sprayed onto the plants and the surface of the soil. […]
If it is additionally to be tested as to whether safeners can improve the plant compatibility of test substances in the case of crop plants, the following options are used for applying the safener: • seeds of the crop plants are, before sowing, dressed with the safener substance (the amount of safener stated in percent, based on the weight of the seed) • before the application of the test substances, the crop plants are sprayed with the safener at a certain application rate per hectare (usually 1 day before the application of the test substances) • the safener is applied together with the test substance as a tank mix (the amount of safener is stated in g/ha or as a ratio, based on the herbicide).
By comparing the effect of test substances on crop plants without or with safener treatment, it is possible to assess the effect of the safener substance.
Container Trials with Cereal in a Greenhouse
Mefenpyr 1 day prior to herbicide application

[2] = tested on: brown plant hopper (Nilaparvata lugens); experiment: Nilaparvata lugens test (hydroponic treatment); assay type: in vivo; details: concentration of 20 ppm
Experimental: Nilaparvata Lugens Test (Hydroponic Treatment)
Solvents: 78 parts by weight of acetone • • 1.5 parts by weight of dimethylformamide
Emulsifier: 0.5 part by weight of alkylaryl polyglycol ether
To produce a suitable preparation of active compound, 1 part by weight of active compound is mixed with the stated amounts of solvents and emulsifier, and the concentrate is diluted with emulsifier-containing water to the desired concentration.
The active compound preparation is pipetted into water. The stated concentration refers to the amount of active compound per volume unit of water (mg/l=ppm). After the desired period of time, the water is infected with the brown plant hopper (Nilaparvata lugens).
After the desired period of time, the effect in % is determined. 100% means that all plant hoppers have been killed; 0% means that none of the plant hoppers have been killed.

[3] = compounds of formula (I-2-b), HPLC reversed-phase C18, 43° C., acidic range pH 2.3, 0.1% aqueous phosphoric acid/acetonitrile
[4] = summer wheat, 25 g of a.i./ha, 10 days after application
[5] = summer wheat, 50 g of a.i./ha, 10 days after application
[6] = summer wheat, 100 g of a.i./ha, 10 days after application
[7] = HPLC, reversed-phase C18, 43° C., acidic range pH 2.3 (0.1% aqueous phosphoric acid/acetonitrile)
[8] = compounds of formula (I-2-a), HPLC reversed-phase C18, 43° C., acidic range pH 2.3, 0.1% aqueous phosphoric acid/acetonitrile
[9] = HPLC, reversed-phase C18, 43° C., acidic range pH 2.3 (0.1% aqueous phosphoric acid/acetonitrile), table of formula (I-2-c)

logP [1, 3]: 4.57
SMILES: COC1CCC2(CC1)OC(=O)C(c1cc(C)ccc1I)=C2OC(=O)C(C)(C)C (single isomer, unassigned) [Example I-2-b-6]

logP [1, 3]: 4.24
SMILES: COC1CCC2(CC1)OC(=O)C(c1cc(C)ccc1I)=C2OC(=O)C(C)(C)C (single isomer, unassigned) [Example I-2-b-7]

logP [1, 3]: 5.21
SMILES: COC1CCC2(CC1)OC(=O)C(c1c(C)cc(I)cc1C)=C2OC(=O)C(C)(C)C (single isomer, unassigned) [Example I-2-b-12]

logP [1, 3]: 4.9
SMILES: COC1CCC2(CC1)OC(=O)C(c1c(C)cc(I)cc1C)=C2OC(=O)C(C)(C)C (single isomer, unassigned) [Example I-2-b-13]

SMILES: Cc1cc(C)c(C2=C(O)C3(CCC(C)CC3)NC2=O)c(I)c1 (stereo not shown) [Example I-1-a-3]
Summer wheat observed (%) (cereal; summer wheat, 12.5 g of a.i./ha, 10 days after application): 10%
Summer wheat observed (%) (cereal; [4]): 20%
Summer wheat observed (%) (cereal; [5]): 30%
Summer wheat observed (%) (cereal; [6]): 40%

SMILES: CCOC(=O)OC1=C(c2c(C)cc(I)cc2CC)C(=O)NC12CCC(OC)CC2 (stereo not shown) [Example I-1-c-1]
Summer wheat observed (%) (cereal; the 20th table, summer wheat, 12.5 g of a.i./ha, 10 days after application): 50%

log P [1, 7]: 1.80
SMILES: CC1(C)OC(=O)C(c2ccccc2I)=C1O [Example I-2-a-1]

logP [1, 8]: 1.92
SMILES: COC1CCC2(CC1)OC(=O)C(c1ccccc1I)=C2O (stereo not shown) [Example I-2-a-2]
efficacy (plant hoppers killed) [2]: ≥ 80%

logP [1, 8]: 2.19
SMILES: COC1CCC2(CC1)OC(=O)C(c1cc(C)ccc1I)=C2O (stereo not shown) [Example I-2-a-4]

logP [1, 8]: 2.63
SMILES: CCc1cc(I)cc(C)c1C1=C(O)C2(CCOCC2)OC1=O [Example I-2-a-5]

logP [1, 8]: 2.92
SMILES: CCc1cc(I)cc(C)c1C1=C(O)C2(CCC(OC)CC2)OC1=O (stereo not shown) [Example I-2-a-6]

logP [1, 8]: 2.94
SMILES: COC1CCC2(CC1)OC(=O)C(c1c(C)cc(I)cc1C)=C2O (stereo not shown) [Example I-2-a-9]

log P [1, 7]: 3.53
SMILES: CC(C)C(=O)OC1=C(c2ccccc2I)C(=O)OC1(C)C [Example I-2-b-1]

logP [1, 3]: 3.95
SMILES: COC1CCC2(CC1)OC(=O)C(c1ccccc1I)=C2OC(=O)C(C)(C)C (stereo not shown) [Example I-2-b-2]

logP [1, 3]: 3.6
SMILES: COC1CCC2(CC1)OC(=O)C(c1ccccc1I)=C2OC(=O)C(C)C (stereo not shown) [Example I-2-b-3]

logP [1, 3]: 3.87
SMILES: CC(C)(C)C(=O)OC1=C(c2ccccc2I)C(=O)OC1(C)C [Example I-2-b-4]

logP [1, 3]: 4.68
SMILES: Cc1ccc(I)c(C2=C(OC(=O)C(C)(C)C)C3(CCCC3)OC2=O)c1 [Example I-2-b-5]

logP [1, 3]: 4.42
SMILES: CCc1cc(I)cc(C)c1C1=C(OC(=O)C(C)C)C2(CCOCC2)OC1=O [Example I-2-b-9]

logP [1, 3]: 4.79
SMILES: CCc1cc(I)cc(C)c1C1=C(OC(=O)C(C)C)C2(CCC(OC)CC2)OC1=O (stereo not shown) [Example I-2-b-10]
Summer wheat observed (%) (cereal; [4]): 15%
Summer wheat observed (%) (cereal; summer wheat, 25 g of a.i./ha, 28 days after application): 25%
Summer wheat observed (%) (cereal; [5]): 30%
Summer wheat observed (%) (cereal; summer wheat, 50 g of a.i./ha, 28 days after application): 40%
Summer wheat observed (%) (cereal; [6]): 50%
Summer wheat observed (%) (cereal; summer wheat, 100 g of a.i./ha, 28 days after application): 50%
Summer wheat observed (%) (cereal; summer wheat, 200 g of a.i./ha, 10 days after application): 70%
Summer wheat observed (%) (cereal; summer wheat, 200 g of a.i./ha, 28 days after application): 75%
Summer wheat observed (%) (cereal; the 21st table second column (also headed Summer wheat), 25 g of a.i./ha, 10 days after application): 60%
Summer wheat observed (%) (cereal; the 21st table second column (also headed Summer wheat), 50 g of a.i./ha, 10 days after application): 65%

logP [1, 3]: 5.26
SMILES: Cc1cc(I)cc(C)c1C1=C(OC(=O)C(C)(C)C)C2(CCCC2)OC1=O [Example I-2-b-11]

log P [1, 7]: 3.47
SMILES: CC(C)OC(=O)OC1=C(c2ccccc2I)C(=O)OC1(C)C [Example I-2-c-1]

logP [1, 8]: 2.51
SMILES: Cc1ccc(I)c(C2=C(O)C3(CCCC3)OC2=O)c1 [I-2-a-3]

logP [1, 8]: 2.81
SMILES: CCc1cc(I)cc(C)c1C1=C(O)C(C)(C)OC1=O [I-2-a-7]

logP [1, 8]: 3.00
SMILES: CCc1cc(I)cc(C)c1C1=C(O)C2(CCCC2)OC1=O [I-2-a-8]

logP [1, 3]: 4.72
SMILES: CCc1cc(I)cc(C)c1C1=C(OC(=O)C(C)C)C(C)(C)OC1=O [I-2-b-8]

logP [1, 9]: 3.54
SMILES: COC1CCC2(CC1)OC(=O)C(c1ccccc1I)=C2OC(=O)OC(C)C (stereo not shown) [I-2-c-2]

logP [1, 9]: 4.66
SMILES: CCc1cc(I)cc(C)c1C1=C(OC(=O)OC(C)C)C(C)(C)OC1=O [I-2-c-3]

logP [1, 9]: 4.77
SMILES: CCc1cc(I)cc(C)c1C1=C(OC(=O)OC(C)C)C2(CCC(OC)CC2)OC1=O (stereo not shown) [I-2-c-4]

logP [1, 9]: 4.41
SMILES: CCc1cc(I)cc(C)c1C1=C(OC(=O)OC(C)C)C2(CCOCC2)OC1=O [I-2-c-5]
